For 51 compounds, IC50 results are on record in US20250214977A1, “STAT6 INHIBITORS AND USES THEREOF” (Kymera Therapeutics, Inc., priority 2024, published 2025).

For the assay, the system named is Phosphorylation of STAT6 in human A549 cells. The experiment in a line: Phosphorylated STAT6 (pSTAT6) flow cytometry assay in human A549 cells. The following applies: read-out: STAT6 IL4 pSTAT6 assay in A549 cells: Average IC50. The assay is classed as cell-based. An excerpt: Example 3. Phosphorylated STAT6 (pSTAT6) Flow Cytometry Assay in Human A549 Cells
Phosphorylation of STAT6 in human A549 cells was quantitatively measured using flow cytometry technology.
Background: In flow cytometry, cells or beads pass a laser one at a time.

For orientation: IC50 means the concentration needed to halve the response being measured. Regarding “(R)-5-(1-(2-formyl-1,2,3,4-tetrahydroisoquinoline-3-carbonyl)-1,2,5,6-tetrahydropyridin-3-yl)-7-(2-methoxyphenyl)-N,N-dimethylbenzofuran-2-carboxamide [Example I-804]”, the IC50 is over 100000 nM.

Take `COc1cc(C)ncc1-c1cc(C2=CCCN(C(=O)CCn3ccnn3)C2)c(F)c2[nH]c(C(=O)N3CCN(c4ncccc4OC)CC3)cc12` [Example I-570]: the IC50 was under 100 nM.

Take `CCc1cnccc1-c1cc(C2=CCCN(C(=O)CCn3cccn3)C2)c(F)c2[nH]c(C(=O)N3CCN(c4ncc(F)cc4OC)CC3)cc12` [Example I-688]: the IC50 was under 100 nM.

In the case of `CCc1nc(C)ccc1-c1cc(C(=O)N2CCN(c3ncc(F)cc3OC)CC2)cc2cc(C3=CCCN(C(=O)CCn4cccn4)C3)n(CC3CC3)c12` [Example I-522], the IC50 was under 100 nM.

Take `COc1ccc(F)cc1-c1cc(C2=CCCN(C(=O)CCn3ccnn3)C2)c(F)c2[nH]c(C(=O)N3CCN(c4ncccc4OC)CC3)cc12` [Example I-395]: the half-maximal inhibitory concentration (IC50) is over 100000 nM.

Turning to `COc1cccnc1N1CCN(C(=O)c2cc3c(-c4ccc5ccccc5c4OC)cc(C4=CCCN(C(=O)CCn5ccnn5)C4)c(F)c3[nH]2)CC1` [Example I-396], the IC50 was over 100000 nM.

Consider `COc1cc(F)cnc1N1CCN(C(=O)c2cc3c(-c4ccc(N5C[C@@H](C)O[C@@H](C)C5)nc4)cc(C4=CCCN(C(=O)CCn5ccnn5)C4)c(F)c3[nH]2)CC1` [Example I-1138], for which the IC50 was under 100 nM.

For `COCOc1ccc(-c2cc(C3=CCCN(C(=O)CCn4ccnn4)C3)c(F)c3[nH]c(C(=O)N4CCN(c5ncc(F)cc5OC)CC4)cc23)cc1` [Example I-1147], the IC50 was under 100 nM.

`COc1ccccc1-c1cc(C2=CCCN(C(=O)CCn3ccnn3)C2)c(F)c2[nH]c(C(=O)N3Cc4ccc(C#N)cc4C3)cc12` [Example I-975]: the IC50 is under 100 nM.

Turning to `CCc1cc(C)ncc1-c1cc(C2=CCCN(C(=O)CCn3ccnn3)C2)c(F)c2[nH]c(C(=O)N3CCN(c4nccnc4OC)CC3)cc12` [Example I-519], the IC50 was under 100 nM.

With `COc1ccccc1N1CCN(C(=O)c2cc3c(-c4cnccc4OC(F)F)cc(C4=CCCN(C(=O)CCn5ccnn5)C4)c(F)c3[nH]2)CC1` [Example I-426], the IC50 is under 100 nM.

On to `COc1ncccc1-c1cc(C(=O)N2Cc3cnn(C)c3C2)cc2cc(C3=CCCN(C(=O)CCn4ccnn4)C3)n(CC3CC3)c12` [Example I-717], for which the IC50 fell in the range of 10000 to 100000 nM.

For `CNc1ccc(-c2cc(C3=CCCN(C(C)=O)C3)c(F)c3[nH]c(C(=O)N(C)C)cc23)c(OC)c1` [Example I-1092], the IC50 was under 100 nM.

Consider `COc1ccccc1-c1cc(C2=CCCN(C(=O)CCn3ccnn3)C2)c(F)c2[nH]c(C(=O)N3CCN(c4cnn5c4CCC5)CC3)cc12` [Example I-1013], for which the IC50 was under 100 nM.

With `COc1ccccc1-c1cc(C2=CCCN(C(=O)CCn3ccnn3)C2)c(F)c2[nH]c(CN3CCN(c4ncccc4OC)CC3=O)cc12` [Example I-1171], the IC50 is 100 to 1000 nM.

Regarding `CCC1CCCCC1c1cc(C2=CCCN(C(=O)CCn3ccnn3)C2)c(F)c2[nH]c(C(=O)N3CCN(c4ncc(F)cc4OC)CC3)cc12` (single isomer, unassigned) [Example I-1175], the IC50 was 100 to 1000 nM.

Regarding `COc1ccccc1-c1cc(C(=O)N2CCN(c3ncc(F)cc3OC)CC2)cc2cc(C3=CCCN(C(=O)CCn4ccnn4)C3)n(CC3CC3)c12` [Example I-506], the IC50 lay in the range of 10000 to 100000 nM.

Consider `CN(C)C(=O)c1cc2cc(C3=CCCN(C(=O)CCn4ccnn4)C3)cc(-c3cnn(C)c3)c2o1` [Example I-1077], for which the IC50 was under 100 nM.

As for `CCC1CN(C(=O)c2cc3c(-c4ccccc4OC)cc(C4=CCCN(C(=O)CCn5ccnn5)C4)c(F)c3[nH]2)CC=C1c1ccccn1` (racemic) [Example I-1042], the half-maximal inhibitory concentration (IC50) fell in the range of 10000 to 100000 nM.

Turning to `COc1ccccc1-c1cc(C2=CCCN(C(=O)CCn3ccnn3)C2)c(F)c2[nH]c(C(=O)Nc3cccn(C)c3=O)cc12` [Example I-1027], the IC50 was in the range of 100 to 1000 nM.

Take `COC(=O)N1CCN(C(=O)c2cc3c(-c4ccccc4OC)cc(C4=CCCN(C(=O)CCn5ccnn5)C4)c(F)c3[nH]2)CC1` [Example I-988]: the IC50 was under 100 nM.

`COc1cc(F)cnc1N1CCN(C(=O)c2cc3c(-c4cccc(CN5CCOCC5)c4)cc(C4=CCCN(C(=O)CCn5ccnn5)C4)c(F)c3[nH]2)CC1` [Example I-1154]: the IC50 is under 100 nM.

Regarding `COc1ccccc1N1CCN(C(=O)c2cc3c(-c4cnccc4OC(C)C)cc(C4=CCCN(C(=O)CCn5ccnn5)C4)c(F)c3[nH]2)CC1` [Example I-403], the IC50 was over 100000 nM.

As to `COc1ccccc1-c1cc(C2=CCCN(C(=O)CCn3ccnn3)C2)c(F)c2[nH]c(C(=O)N3CCN(c4ncc(C5CC5)cc4OC)CC3)cc12` [Example I-354], the IC50 is under 100 nM.

Take `CNc1ccc(-c2cc(C3=CCCN(C(=O)CCn4ccnn4)C3)cc3[nH]c(C(=O)N(C)C)cc23)c(OC)c1` [Example I-1051]: the IC50 is over 100000 nM.

For the compound “(S)-1-(5-(7-fluoro-2-(4-(5-fluoro-3-methoxypyridin-2-yl)piperazine-1-carbonyl)-4-(1-methylpyrrolidin-3-yl)-1H-indol-6-yl)-3,6-dihydropyridin-1(2H)-yl)-3-(1H-1,2,3-triazol-1-yl)propan-1-one [Example I-811]”, the IC50 is under 100 nM.

Regarding `COc1ccccc1-c1cc(C2=CCCN(C(=O)C(C)C)C2)c(F)c2[nH]c(C(=O)N(C)C)cc12` [Example I-837], the IC50 was 100 to 1000 nM.

Consider `COc1cc(F)cnc1N1CCN(C(=O)c2cc3c(-c4ccc(C5(C#N)CC5)cc4)cc(C4=CCCN(C(=O)CCn5ccnn5)C4)c(F)c3[nH]2)CC1` [Example I-1140], for which the half-inhibitory concentration (IC50) is under 100 nM.

For the compound `COc1cc(F)cnc1N1CCN(C(=O)c2cc3c(C4=COCCC4)cc(C4=CCCN(C(=O)CCn5ccnn5)C4)c(F)c3[nH]2)CC1` [Example I-1155], the IC50 was under 100 nM.

On to `CCOc1ccncc1-c1cc(C2=CCCN(C(=O)CCn3ccnn3)C2)c(F)c2[nH]c(C(=O)N3CCN(c4ccccc4OC)CC3)cc12` [Example I-406], for which the IC50 was over 100000 nM.

As to `COc1ccncc1-c1cc(C2=CCCN(C(=O)CCn3ccnn3)C2)c(F)c2[nH]c(C(=O)N3CCN(c4nccnc4OC)CC3)cc12` [Example I-441], the IC50 was under 100 nM.

With `COC(=O)CCC#Cc1cc(C2=CCCN(C(=O)C3Cc4ccccc4CN3C=O)C2)cc2cc(C(=O)N(C)C)oc12` (stereo not drawn) [Example I-823], the concentration for half-maximal inhibition (IC50) is under 100 nM.

As to `C[C@H](Cn1ccnn1)C(=O)N1CCC=C(c2ccc3oc(C(=O)N(C)C)cc3c2)C1` (single isomer, unassigned) [Example I-818], the IC50 was in the range of 100 to 1000 nM.

As to `COc1ccccc1-c1cc(C2=CCCN(C(=O)CCn3ccnn3)C2)c(F)c2[nH]c(C(=O)N3CCN(Cc4ccc(Cl)cc4)CC3)cc12` [Example I-868], the half-maximal inhibitory concentration (IC50) lay within 100 to 1000 nM.

As to `CCc1ccc(-c2cc(C(=O)N3CCN(c4ncc(F)cc4OC)CC3)cc3cc(C4=CCCN(C(C)=O)C4)n(CC4CC4)c23)c(C)n1` [Example I-793], the concentration for half-maximal inhibition (IC50) was under 100 nM.

With `CN(C)C(=O)c1cc2cc(C3=CCCN(C(=O)CCn4ccnn4)C3)cc(C3CCNCC3)c2o1` [Example I-1048], the half-maximal inhibitory concentration (IC50) is under 100 nM.

Take `COc1ccccc1-c1cc(C2=CCCN(C(=O)CCn3ccnn3)C2)c(F)c2[nH]c(C(=O)N3CCN(c4ccc(=O)n(C)c4)CC3)cc12` [Example I-971]: the IC50 was under 100 nM.

With `COc1ccccc1-c1cc(C2=CCCN(C(=O)CCn3ccnn3)C2)c(F)c2[nH]c(C(=O)N3CCN(c4cc(C#N)cc5[nH]ccc45)CC3)cc12` [Example I-771], the IC50 was under 100 nM.

`COc1ccccc1-c1cc(C2=CCCN(C(=O)CCn3ccnn3)C2)c(F)c2[nH]c(C(=O)N3CCN(c4ccnc5c4CC(=O)N5)CC3)cc12` [Example I-914]: the IC50 was under 100 nM.

In the case of `COc1cccnc1N1CCN(C(=O)c2cc3c(-c4ccccc4C#N)cc(C4=CCCN(C(=O)CCn5ccnn5)C4)c(F)c3[nH]2)CC1` [Example I-573], the IC50 is under 100 nM.

For `CCOC(=O)c1cc2ccc(N3CCN(C(=O)c4cc5c(-c6ccccc6OC)cc(C6=CCCN(C(=O)CCn7ccnn7)C6)c(F)c5[nH]4)CC3)cn2c1` [Example I-903], the IC50 was in the range of 100 to 1000 nM.

Take `CN(C)C(=O)c1cc2cc(C3=CCCN(C(=O)CCc4cccnn4)C3)ccc2o1` [Example I-820]: the IC50 was 100 to 1000 nM.

In the case of `CCc1ccc(-c2cc(C(=O)N3CCN(c4ncc(F)cc4OC)CC3)cc3cc(C4=CCCN(C(=O)C5CC5C(=O)O)C4)n(CC4CC4)c23)c(C)n1` (stereo not drawn) [Example I-550], the IC50 is over 100000 nM.

Regarding `COc1cc(F)cnc1N1CCN(C(=O)c2cc3c(-c4ccnc(N5CCN(C)CC5)c4)cc(C4=CCCN(C(=O)CCn5ccnn5)C4)c(F)c3[nH]2)CC1` [Example I-617], the IC50 is under 100 nM.

Turning to `Cc1cc(CNc2cc(C3=CCCN(C(=O)CCn4ccnn4)C3)cc3cc(C(=O)N(C)C)oc23)n(C)n1` [Example I-894], the IC50 fell in the range of 100 to 1000 nM.

As to `COc1cc(F)cnc1N1CCN(C(=O)c2cc3c(-c4cccc(C)c4)cc(C4=CCCN(C(=O)CCn5ccnn5)C4)c(F)c3[nH]2)CC1` [Example I-673], the IC50 is under 100 nM.

Consider `COc1cccnc1N1CCN(C(=O)c2cc3c(-c4cnc(C)c(C)c4OC)cc(C4=CCCN(C(=O)CCn5ccnn5)C4)c(F)c3[nH]2)CC1` [Example I-724], for which the half-inhibitory concentration (IC50) was under 100 nM.

As for `COc1ccccc1-c1cc(C2=CCCN(C(=O)CCn3ccnn3)C2)c(F)c2[nH]c(C(=O)N3CCN(c4ncccn4)C[C@@H]3C)cc12` [Example I-995], the IC50 was under 100 nM.

Take `COc1cc(F)cnc1N1CCN(C(=O)c2cc3c(-c4ccc5c(c4)OCCCO5)cc(C4=CCCN(C(=O)CCn5ccnn5)C4)c(F)c3[nH]2)CC1` [Example I-1148]: the IC50 is under 100 nM.

In the case of `COc1cccnc1N1CCN(C(=O)c2cc3c(C4=CCN(C)CC4C)cc(C4=CCCN(C(=O)CCn5ccnn5)C4)c(F)c3[nH]2)CC1` (stereo not drawn) [Example I-1150], the 50% inhibitory concentration (IC50) was under 100 nM.

As for `COc1cc(F)cnc1N1CCN(C(=O)c2cc3c(-c4ccc(OCC5CC5)nc4)cc(C4=CCCN(C(=O)CCn5ccnn5)C4)c(F)c3[nH]2)CC1` [Example I-1164], the IC50 lay in the range of 100 to 1000 nM.
